Experimental data taken from patent US6498251B1, “Tetrahydrobenzindole derivatives” (Meiji Seika Kaisha, Ltd., priority 1997, dated 2002).

Legend:
5-HT2 receptor = target: T1, 5-HT2 receptor (Rattus norvegicus, UniProt P14842); experiment: Binding affinity for 5-HT2 receptor ([3H]ketanserin binding, rat cerebral cortex P2 fraction); conditions: [3H]ketanserin 1 nM, 37° C. 15 minutes, Ki calculated from IC50
T1 construct: Rat cerebral cortex was homogenized; from tissue; host or cells: rat cerebral cortex, P2 membrane fraction
Method: Test Example 2 Binding Affinity for 5-HT2 Rector
Rat cerebral cortex was homogenized in 10 volumes of 0.32 M sucrose solution and centrifuged for 10 minutes at 900×g, and the resulting supernatant fluid was again centrifuged for 20 minutes at 11,500×g. The thus obtained precipitate was re-suspended in 50 mM Tris-HCl (pH 7.4) buffer and centrifuged for 20 minutes at 39,900×g, and the thus obtained precipitate was used as P2 fraction.
The P2 fraction was incubated at 37° C. for 15 minutes in 50 mM Tris-HCl (pH 7.4) buffer containing 1 nM of [^3H]ketanserin and each of the compounds of the invention and then filtered after the reaction using Whatman GF/B glass filter. The radioactivity on the filter was measured using a liquid scintillation counter. Non-specific binding was determined by 10 μM ketanserin, and the specific binding was calculated based on the difference therefrom. The IC50 value was calculated from the inhibition curve of each compound, and the binding inhibition constant Ki was calculated from the value.

[1] = target: T2, human serotonin 5-HT7 receptor subtype (Homo sapiens, UniProt P34969); experiment: Binding affinity for 5-HT7 receptor ([3H]-5CT binding test); conditions: for Ki: [3H]-5CT 1 nM, membrane fraction of cells expressing human 5-HT7, 37° C. 30 minutes, Ki calculated from IC50; for 5-HT2/5-HT7: ratio of Ki of 5-HT2 to Ki of 5-HT7 (selectivity)
T2 construct: expressed in transfected cells
Method: Test Example 1 Binding Affinity for 5-HT7 Rector
Cultured cells capable of expressing human serotonin 5-HT7 receptor subtype were harvested in an assay buffer solution (50 mM Tris-HCl containing 10 mM MgCl2and 0.5 mM EDTA, pH 7.4) and homogenized with a Potter tripe homogenizer, and then the membrane fraction was centrifuged for 20 minutes at 39,000 g and at 4° C. The thus obtained pellet was re-suspended in 1 ml, per cells per one culture dish of 10 cm in diameter, of the assay buffer solution and homogenized again.
The binding test was carried out using 1 nM in final concentration of [^3H]-5CT (carboxamide tryptamine) and from 1 to 1,000 nM of each substance to be tested (the compound (1) of the invention among Synthesis Examples), and adjusting the final assay volume to 300 μl by adding 100 μl of the membrane fraction suspension and then incubating the reaction system at 37° C. for 30 minutes. The incubation was terminated by quickly filtering on a GF/B filter, subsequently carrying out washing with 6 ml of cold 50 mM Tris-HCl (pH 7.4). The radioactivity was measured using a liquid scintillation counter. Non-specific binding was determined by 10 μM metergoline, and the specific binding was calculated based on the difference therefrom. The IC50 value was calculated from the inhibition curve of each compound, and the binding inhibition constant Ki was calculated from the value.

T1 sequence (P14842 whole entry): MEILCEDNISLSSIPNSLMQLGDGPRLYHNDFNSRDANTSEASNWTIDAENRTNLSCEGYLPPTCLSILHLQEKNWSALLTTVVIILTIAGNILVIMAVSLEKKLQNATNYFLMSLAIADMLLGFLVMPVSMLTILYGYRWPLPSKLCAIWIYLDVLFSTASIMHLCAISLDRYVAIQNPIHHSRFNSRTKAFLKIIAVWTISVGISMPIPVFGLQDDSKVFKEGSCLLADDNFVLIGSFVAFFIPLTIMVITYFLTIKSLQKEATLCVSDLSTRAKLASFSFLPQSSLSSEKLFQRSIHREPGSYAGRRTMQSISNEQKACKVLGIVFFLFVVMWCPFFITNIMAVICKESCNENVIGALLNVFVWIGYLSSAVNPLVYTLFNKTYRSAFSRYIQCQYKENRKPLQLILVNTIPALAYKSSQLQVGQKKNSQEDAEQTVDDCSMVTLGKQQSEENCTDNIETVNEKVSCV
T2 sequence (P34969 whole entry): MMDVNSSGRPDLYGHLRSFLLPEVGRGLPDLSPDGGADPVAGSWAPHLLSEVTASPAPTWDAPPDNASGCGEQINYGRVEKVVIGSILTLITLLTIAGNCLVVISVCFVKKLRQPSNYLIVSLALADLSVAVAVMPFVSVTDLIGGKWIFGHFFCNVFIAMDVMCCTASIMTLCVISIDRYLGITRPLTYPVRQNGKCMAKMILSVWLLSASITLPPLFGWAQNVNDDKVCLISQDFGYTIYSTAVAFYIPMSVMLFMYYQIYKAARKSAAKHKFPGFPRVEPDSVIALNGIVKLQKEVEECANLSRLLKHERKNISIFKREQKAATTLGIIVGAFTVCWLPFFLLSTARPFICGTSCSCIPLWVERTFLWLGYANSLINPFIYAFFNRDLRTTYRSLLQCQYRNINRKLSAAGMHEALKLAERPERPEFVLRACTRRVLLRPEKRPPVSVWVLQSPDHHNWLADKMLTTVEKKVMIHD

Row | Compound | Ki (5-HT2 receptor) | Ki [1] | 5-HT2/5-HT7 [1]
1 | O=C1Nc2cccc3c2C1(CCCCN1CCc2c([nH]c4ccccc24)C1)CCC3 (stereo not drawn) [Compd. of Syn. Ex. 1a, 2a-[4-(2,3,4,9-Tetrahydro-1H-pyrido[3,4-b]indol-2-yl)-butyl]-2a,3,4,5-tetrahydro-1H-benz[cd]indol-2-one] | 227 nM | 7 nM | 33
2 | O=C1Nc2cccc3c2C1(CCCCN1CCN2c4ccccc4OCC2C1)CCC3 (stereo not drawn) [Compd. of Syn. Ex. 1b, 2a-[4-(1,2,3,4,4a,5-Hexahydropyrazino[2,1-c]-1,4-benzoxazin-3-yl)-butyl]-2a,3,4,5-tetrahydro-1H-benz[cd]indol-2-one] | 151 nM | 9 nM | 17
3 | CC(c1ccccc1)N1CCN(CCCCC23CCCc4cccc(c42)NC3=O)CC1 (stereo not drawn) [Compd. of Syn. Ex. 2e, 2a-(4-(4-(1-Phenyl-ethyl)-piperazin-1-yl)butyl)-2a,3,4,5-tetrahydro-1H-benz[cd]indol-2-one] | 456 nM | 30 nM | 15
4 | O=C1Nc2cccc3c2C1(CCCCN1CCN2c4ccccc4[S+]([O-])CC2C1)CCC3 (stereo not drawn) [Compd. of Syn. Ex. 10b, 2a-[4-(1,2,3,4,4a,5-Hexahydro-6-oxo-6-λ^4-pyrazino[2,1-c]-1,4-benzthiazin-3-yl)-butyl]-2a,3,4,5-tetrahydro-1H-benz[cd]indol-2-one] | > 1000 nM | 7 nM | >143
5 | O=C1Nc2cccc3c2C1(CCCCN1CCN(C2CCCc4ccccc42)CC1)CCC3 (stereo not drawn) [Compd. of Syn. Ex. 10d, 2a-(4-(4-(1,2,3,4-Tetrahydronaphthalen-1-yl)-piperazin-1-yl)butyl)-2a,3,4,5-tetrahydro-1H-benz[cd]indol-2-one] | > 1000 nM | 9.8 nM | >100
6 | Cl.O=C1Nc2ccccc2N2CCN(CCCCC34CCCc5cccc(c53)NC4=O)CC12 (stereo not drawn) [Compd. of Syn. Ex. 13b, 2a-[4-(2,3,4,4a-Tetrahydro-1H-pyrazino[1,2-a]quinoxalin-5(6H)-one-3-yl)-butyl]-2a,3,4,5-tetrahydro-1H-benz[cd]indol-2-one Hydrochloride] | 385 nM | 8 nM | 48
7 | CN1C(=O)C2(CCCCN3CCc4ccccc4C3)CCCc3cccc1c32 (stereo not drawn) [Compd. of Syn. Ex. 14c, 2a-(4-(1,2,3,4-Tetrahydroisoquinolin-2-yl)butyl)-1-methyl-2a,3,4,5-tetrahydro-1H-benz[cd]indol-2-one] | > 1000 nM | 1.9 nM | >530
8 | COC(=O)n1c2c(c3ccccc31)CCN(CCCCC13CCCc4cccc(c41)NC3=O)C2 (stereo not drawn) [Compd. of Syn. Ex. 17a, 2a-[4-(9-Methoxycarbonyl-2,3,4,9-tetrahydro-1H-pyrido[3,4-b]indol-2-yl)-butyl]-2a,3,4,5-tetrahydro-1H-benz[cd]indol-2-one] | 807 nM | 9 nM | 90
9 | O=C1Nc2cccc3c2C1(CCCCN1CCc2sccc2C1)CCC3 (stereo not drawn) [Compd. of Syn. Ex. 17c, 2a-(4-(4,5,6,7-Tetrahydro-thieno[3,2-c]pyridin-5-yl)butyl)-2a,3,4,5-tetrahydro-1H-benz[cd]indol-2-one] | > 1000 nM | 0.9 nM | >1100
10 | COCn1c2c(c3ccccc31)CCN(CCCCC13CCCc4cccc(c41)NC3=O)C2 (stereo not drawn) [Compd. of Syn. Ex. 21a, 2a-[4-(9-Methoxymethyl-2,3,4,9-tetrahydro-1H-pyrido[3,4-b]indol-2-yl)-butyl]-2a,3,4,5-tetrahydro-1H-benz[cd]indol-2-one] | 524 nM | 13 nM | 40
11 | O=C1Nc2cccc3c2C1(CCCCN1CCN(C2CCCc4cnccc42)CC1)CCC3 (stereo not drawn) [Compd. of Syn. Ex. 37d, 2a-(4-(4-(5,6,7,8-Tetrahydroisoquinolin-5-yl)-piperazin-1-yl)butyl)-2a,3,4,5-tetrahydro-1H-benz[d]indol-2-one] | 882 nM | 8.8 nM | 100
